Test results reported in ChEMBL document CHEMBL1201862, “PubChem BioAssay data set” (2004).
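Assay format: 96-well plates, 48-hour exposure. GI50 marks 50% less growth.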 Active and inactive are the calls of the source. Cut-off read from the data, not from the text of the source: active = GI50 up to about 1.1 µM and inactive = higher.

Tests used:
Assay in all cases: NCI tumour cell line growth inhibition, 48 h
Malme-3M = tested on: Malme-3M
SF-268 = tested on: SF-268
U-251 = tested on: U-251
HL-60 = tested on: HL-60
OVCAR-5 = tested on: OVCAR-5
SN12C = tested on: SN12C
SW-620 = tested on: SW-620
RPMI-8226 = tested on: RPMI-8226
HOP-62 = tested on: HOP-62
SK-MEL-28 = tested on: SK-MEL-28
HT-29 = tested on: HT-29
HOP-92 = tested on: HOP-92
NCI-H460 = tested on: NCI-H460
CCRF-CEM = tested on: CCRF-CEM
IGROV-1 = tested on: IGROV-1
UO-31 = tested on: UO-31

| SMILES | GI50 (Malme-3M) | GI50 (SF-268) | GI50 (U-251) | GI50 (HL-60) | GI50 (OVCAR-5) | GI50 (SN12C) | GI50 (SW-620) | GI50 (RPMI-8226) | GI50 (HOP-62) | GI50 (SK-MEL-28) | GI50 (HT-29) | GI50 (HOP-92) | GI50 (NCI-H460) | GI50 (CCRF-CEM) | GI50 (IGROV-1) | GI50 (UO-31) |
| --- | --- | --- | --- | --- | --- | --- | --- | --- | --- | --- | --- | --- | --- | --- | --- | --- |
| O=C(NN1C(=O)CS(=O)(=O)C1c1cccc(F)c1)c1ccncc1 (centres undefined) | > 100 µM (inactive) | > 100 µM (inactive) | > 10 µM (inactive) | > 100 µM (inactive) | > 100 µM (inactive) | > 100 µM (inactive) | > 100 µM (inactive) | > 100 µM (inactive) | > 100 µM (inactive) | > 100 µM (inactive) | > 100 µM (inactive) | > 100 µM (inactive) | > 100 µM (inactive) | – | – | – |
| Cc1ccc(S(=O)(=O)N/N=C(\C(=O)Nc2cccc([N+](=O)[O-])c2)c2nc3ccc([N+](=O)[O-])cc3nc2O)cc1 | 77.3 µM (inactive) | 48.5 µM (inactive) | 70.3 µM (inactive) | – | 46.3 µM (inactive) | > 100 µM (inactive) | 40.6 µM (inactive) | 54.7 µM (inactive) | 81.8 µM (inactive) | > 100 µM (inactive) | 53 µM (inactive) | > 100 µM (inactive) | 33.5 µM (inactive) | 7.64 µM (inactive) | > 100 µM (inactive) | 9.33 µM (inactive) |
| COC1(OC)c2ccccc2C2(O)c3ccccc3C(=O)C12 (centres undefined) | 38 µM (inactive) | > 100 µM (inactive) | 43 µM (inactive) | 13.5 µM (inactive) | > 100 µM (inactive) | 60.8 µM (inactive) | 71 µM (inactive) | 5.79 µM (inactive) | – | > 100 µM (inactive) | 55.5 µM (inactive) | 46.6 µM (inactive) | 26.4 µM (inactive) | 22.5 µM (inactive) | 18.2 µM (inactive) | 16.4 µM (inactive) |
| CC(NC(=O)C(=O)N/N=C1\C[C@@H](c2ccccc2)Nc2ccccc21)c1ccccc1 (some centres undefined) | 20.5 µM (inactive) | 94.6 µM (inactive) | > 100 µM (inactive) | 8.57 µM (inactive) | > 100 µM (inactive) | 1.06 µM (active) | > 100 µM (inactive) | – | > 100 µM (inactive) | > 100 µM (inactive) | 80.7 µM (inactive) | 20 µM (inactive) | > 100 µM (inactive) | – | – | 33 µM (inactive) |
| O=[N+]([O-])c1nccn1CC(O)c1ccccc1 (centres undefined) | > 100 µM (inactive) | > 100 µM (inactive) | > 100 µM (inactive) | > 100 µM (inactive) | > 100 µM (inactive) | > 100 µM (inactive) | > 100 µM (inactive) | > 100 µM (inactive) | > 100 µM (inactive) | > 100 µM (inactive) | > 100 µM (inactive) | > 100 µM (inactive) | > 100 µM (inactive) | > 100 µM (inactive) | > 100 µM (inactive) | > 100 µM (inactive) |
| Nc1ccc(C(=O)N/C(=C\c2ccc3c(c2)OCO3)c2nc3ccc4c(c3[nH]2)C(=O)c2ccccc2C4=O)cc1 | 61.8 µM (inactive) | 12.4 µM (inactive) | 33 µM (inactive) | – | > 100 µM (inactive) | 30.1 µM (inactive) | 27.2 µM (inactive) | 3.68 µM (inactive) | 36.8 µM (inactive) | 33.1 µM (inactive) | 40.6 µM (inactive) | 17.5 µM (inactive) | 26.4 µM (inactive) | 2.26 µM (inactive) | 17.5 µM (inactive) | 2.64 µM (inactive) |
| O=C(Nc1ccccc1)c1ccc(Cl)c([N+](=O)[O-])c1 | 20.5 µM (inactive) | > 10 µM (inactive) | 19.5 µM (inactive) | – | – | 5.21 µM (inactive) | 4.85 µM (inactive) | 3.88 µM (inactive) | 32.7 µM (inactive) | 22.4 µM (inactive) | 13.4 µM (inactive) | – | 6.31 µM (inactive) | 4.14 µM (inactive) | 14.8 µM (inactive) | 36.1 µM (inactive) |
| COc1cc2c(cc1O)C(C)Cc1cc3c(cc1N(C)CC2)OCO3 (centres undefined) | 3.12 µM (inactive) | 5.3 µM (inactive) | 4.01 µM (inactive) | 4.61 µM (inactive) | 23.1 µM (inactive) | 5.94 µM (inactive) | 3.74 µM (inactive) | 4.09 µM (inactive) | 10.6 µM (inactive) | 6.22 µM (inactive) | 12.9 µM (inactive) | 4.66 µM (inactive) | 3.35 µM (inactive) | 4.59 µM (inactive) | 10 µM (inactive) | 6.41 µM (inactive) |
| COC(=O)C1=C(C(=O)OC)C2=S(SC3=C2CCCC3)S1 (centres undefined) | 20.1 µM (inactive) | 37.6 µM (inactive) | 19.6 µM (inactive) | 9.48 µM (inactive) | 27.4 µM (inactive) | 25.5 µM (inactive) | 0.467 µM (active) | 3.26 µM (inactive) | > 100 µM (inactive) | 29.7 µM (inactive) | 18.7 µM (inactive) | 6.05 µM (inactive) | 28.1 µM (inactive) | 2.98 µM (inactive) | 85.7 µM (inactive) | 68.1 µM (inactive) |
| O=C(/C=C\c1cccc2ccccc12)c1ccc(Cl)cc1Cl | 26.7 µM (inactive) | 19.6 µM (inactive) | 16.4 µM (inactive) | 18.2 µM (inactive) | 24.4 µM (inactive) | > 100 µM (inactive) | 20 µM (inactive) | 18 µM (inactive) | > 100 µM (inactive) | 18.5 µM (inactive) | 17.9 µM (inactive) | – | 23.4 µM (inactive) | 17.3 µM (inactive) | 39.7 µM (inactive) | 53 µM (inactive) |
| CC(C)(C)c1cc(O)c2c(c1O)C(=O)CCC2 | – | – | 50.7 µM (inactive) | 20.2 µM (inactive) | – | 41.8 µM (inactive) | 57.8 µM (inactive) | 21.1 µM (inactive) | 22.8 µM (inactive) | 42.6 µM (inactive) | 32.9 µM (inactive) | 2.69 µM (inactive) | 48 µM (inactive) | 35.2 µM (inactive) | 40.7 µM (inactive) | – |
| CN(C)CCNC(=O)c1cccc2nc3c(Cl)cccc3nc12 | 2 µM (inactive) | – | 5.18 µM (inactive) | 6.43 µM (inactive) | 7.93 µM (inactive) | 4.52 µM (inactive) | 3.92 µM (inactive) | 4.23 µM (inactive) | 5.66 µM (inactive) | 4.7 µM (inactive) | 3.18 µM (inactive) | 2.84 µM (inactive) | – | – | 6.41 µM (inactive) | 8.05 µM (inactive) |
| CC1=NN2C(c3ccc(C)cc3)=CSC2=NC(C)(C)C1 | > 100 µM (inactive) | > 100 µM (inactive) | > 100 µM (inactive) | 76.2 µM (inactive) | > 100 µM (inactive) | > 100 µM (inactive) | > 100 µM (inactive) | > 100 µM (inactive) | > 100 µM (inactive) | > 100 µM (inactive) | > 100 µM (inactive) | > 100 µM (inactive) | > 100 µM (inactive) | > 100 µM (inactive) | > 100 µM (inactive) | > 100 µM (inactive) |
| COc1ccc(/C=C/C(=O)C(C)(C)CN2CCCCC2)cc1 | 22.2 µM (inactive) | 22.1 µM (inactive) | 15.4 µM (inactive) | 18.6 µM (inactive) | 33.7 µM (inactive) | 18.3 µM (inactive) | 1.13 µM (inactive) | 18.2 µM (inactive) | 32.2 µM (inactive) | 24.2 µM (inactive) | 16.6 µM (inactive) | – | 18.7 µM (inactive) | 24.2 µM (inactive) | 26.2 µM (inactive) | 17.7 µM (inactive) |
| CC(=O)N(C)c1ccc2c(ccc[n+]2[O-])c1[N+](=O)[O-] | > 100 µM (inactive) | > 100 µM (inactive) | > 100 µM (inactive) | > 100 µM (inactive) | > 100 µM (inactive) | > 100 µM (inactive) | > 100 µM (inactive) | > 100 µM (inactive) | > 100 µM (inactive) | > 100 µM (inactive) | > 100 µM (inactive) | – | > 100 µM (inactive) | > 100 µM (inactive) | > 100 µM (inactive) | > 100 µM (inactive) |
| [O-]/[N+](=C\c1ccccc1)[C@H](COCc1ccccc1)c1ccccc1 | > 100 µM (inactive) | 55.2 µM (inactive) | 80.9 µM (inactive) | 25.2 µM (inactive) | > 100 µM (inactive) | – | > 100 µM (inactive) | 30.2 µM (inactive) | > 100 µM (inactive) | > 100 µM (inactive) | 71 µM (inactive) | 24.8 µM (inactive) | > 100 µM (inactive) | 50.6 µM (inactive) | > 100 µM (inactive) | 24.2 µM (inactive) |
| Cc1ccc(Nc2nc(C)c(C(/C=C/c3ccc4c(c3)OCO4)=N/Nc3ccc([N+](=O)[O-])cc3[N+](=O)[O-])s2)c([N+](=O)[O-])c1 | 65.3 µM (inactive) | 53.2 µM (inactive) | 49.2 µM (inactive) | 21.7 µM (inactive) | 43.9 µM (inactive) | 28 µM (inactive) | 45 µM (inactive) | – | 32.8 µM (inactive) | > 100 µM (inactive) | 50.6 µM (inactive) | – | 41 µM (inactive) | 28.2 µM (inactive) | 62.7 µM (inactive) | 21.8 µM (inactive) |
| NCc1c(C(N)=O)ncn1Cc1ccccc1 | – | – | > 100 µM (inactive) | > 100 µM (inactive) | – | > 100 µM (inactive) | > 100 µM (inactive) | > 100 µM (inactive) | > 100 µM (inactive) | > 100 µM (inactive) | > 100 µM (inactive) | 65.9 µM (inactive) | > 100 µM (inactive) | > 100 µM (inactive) | > 100 µM (inactive) | – |
| CCN(C(C)=N)c1ccccc1 | > 100 µM (inactive) | > 100 µM (inactive) | > 100 µM (inactive) | 32.8 µM (inactive) | > 100 µM (inactive) | 70 µM (inactive) | > 100 µM (inactive) | 27 µM (inactive) | 66.4 µM (inactive) | 68.4 µM (inactive) | – | 60.4 µM (inactive) | > 100 µM (inactive) | > 100 µM (inactive) | > 100 µM (inactive) | 39 µM (inactive) |
